From article PMC6530925 (Nature metabolism, 2019) come the findings set out here.

As a reminder, the IC50 is the point on the concentration scale where inhibition reaches its midpoint.

Structures are written as SMILES.

The target of this experiment is T1, Slc12a8 (Mus musculus, UniProt Q8VI23).
T1 sequence (Q8VI23 1-705): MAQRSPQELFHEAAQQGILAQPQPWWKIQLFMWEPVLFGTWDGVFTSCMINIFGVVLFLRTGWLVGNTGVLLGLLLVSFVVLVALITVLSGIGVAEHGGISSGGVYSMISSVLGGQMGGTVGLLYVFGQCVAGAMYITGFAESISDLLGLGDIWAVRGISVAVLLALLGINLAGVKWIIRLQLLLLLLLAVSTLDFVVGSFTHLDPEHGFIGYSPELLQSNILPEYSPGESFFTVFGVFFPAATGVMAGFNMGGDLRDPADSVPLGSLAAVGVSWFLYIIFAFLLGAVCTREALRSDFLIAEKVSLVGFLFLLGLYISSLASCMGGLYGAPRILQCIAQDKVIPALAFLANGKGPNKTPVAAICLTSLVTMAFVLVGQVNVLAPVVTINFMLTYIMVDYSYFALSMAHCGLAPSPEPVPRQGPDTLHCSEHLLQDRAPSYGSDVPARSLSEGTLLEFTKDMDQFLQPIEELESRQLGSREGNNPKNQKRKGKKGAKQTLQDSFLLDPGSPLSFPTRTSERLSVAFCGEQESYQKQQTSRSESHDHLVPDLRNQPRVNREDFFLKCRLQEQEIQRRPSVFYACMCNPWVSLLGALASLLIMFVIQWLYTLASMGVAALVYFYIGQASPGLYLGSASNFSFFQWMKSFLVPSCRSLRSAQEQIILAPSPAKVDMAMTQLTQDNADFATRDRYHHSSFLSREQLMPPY
As to the kind of experiment: 3H-NMN uptake into Slc12a8-OE proteoliposomes with cold NMN competition. It counts as biochemical.

Take `NC(=O)c1ccc[n+]([C@@H]2O[C@H](COP(=O)([O-])O)[C@@H](O)[C@H]2O)c1` [NMN, Nicotinamide mononucleotide]: the half-inhibitory concentration (IC50) is 22.8 ± 3.6 µM.
